Test results published in ChEMBL document CHEMBL1158459, “Discovery of a peroxisome proliferator activated receptor gamma (PPARgamma) modulator with balanced PPARalpha activity for the treatment of type 2 diabetes and dyslipidemia” (J Med Chem, 2009).
Calls of active or inactive are those of the source. The calls are words filed in the database; no cut-off is given here.

What was measured:
[1] = AUC in rat at 2 mg/kg, po; type: ADME, organism-based, Plasma; parameters: dose 2 mg/kg, route oral; conditions: plasma
[2] = AUC in Sprague-Dawley rat at 60 mg/kg, po once daily for 14 days; type: ADME, organism-based; parameters: dose 60 mg/kg, route oral; conditions: plasma
Rattus norvegicus [3] = assay: Antidiabetic activity in Zucker fa/fa rat assessed as decrease in free fatty acid levels at 10 mg/kg, po once daily for 7 days; type: functional, organism-based; parameters: dose 10 mg/kg
[4] = Cmax in Syrian golden hamster at 1 mg/kg, po once daily for 9 days; type: ADME, organism-based, Mesocricetus auratus; parameters: dose 1 mg/kg, route oral; conditions: in vivo
[5] = AUC in C57BLKS/J-m+/+Leprdb db/db mouse at 3 mg/kg, po once daily for 11 days; type: ADME, organism-based; parameters: dose 3 mg/kg, route oral; conditions: plasma
[6] = molecular target: Estrogen receptor (Homo sapiens) (UniProt P03372); assay: Activity at ERalpha receptor up to 10 uM by transactivation assay
Rattus norvegicus [7] = assay: Antidiabetic activity in Zucker fa/fa rat assessed as decrease in triglyceride levels at 0.03 mg/kg, po once daily for 7 days; type: functional, organism-based; parameters: dose 0.03 mg/kg
[8] = Cmax in C57BLKS/J-m+/+Leprdb db/db mouse at 1 mg/kg, po once daily for 11 days; type: ADME, organism-based; parameters: dose 1 mg/kg, route oral; conditions: in vivo
Rattus norvegicus [9] = assay: Toxicity in Sprague-Dawley rat assessed as hematocrit at 60 mg/kg, po once daily for 14 days; type: organism-based; parameters: dose 60 mg/kg, route oral; conditions: in vivo, 336 h
[10] = molecular target: Retinoic acid receptor RXR-alpha (Homo sapiens) (UniProt P19793); assay: Activity at RXRalpha receptor up to 10 uM by transactivation assay
[11] = Cmax in Syrian golden hamster at 3 mg/kg, po once daily for 9 days; type: ADME, organism-based, Mesocricetus auratus; parameters: dose 3 mg/kg, route oral; conditions: in vivo
Rattus norvegicus [12] = assay: Antidiabetic activity in Zucker fa/fa rat assessed as decrease in triglyceride levels at 100 mg/kg, po once daily for 7 days; type: functional, organism-based; parameters: dose 100 mg/kg
Rattus norvegicus [13] = assay: Antidiabetic activity in Zucker fa/fa rat assessed as decrease in triglyceride levels at 15 mg/kg, po once daily for 7 days; type: functional, organism-based; parameters: dose 15 mg/kg
Mus musculus [14] = assay: Antidiabetic activity in C57BLKS/J-m+/+Leprdb db/db mouse assessed as reduction in plasma triglyceride levels at 10 mg/kg, po once daily for 11 days relative to control; type: functional; parameters: scale not given: the % may be the effect or the level left
Mus musculus [15] = assay: Antidiabetic activity in C57BLKS/J-m+/+Leprdb db/db mouse assessed as reduction in plasma glucose levels at 3 mg/kg, po once daily for 11 days relative to control; type: functional; parameters: scale not given: the % may be the effect or the level left
Rattus norvegicus [16] = assay: Toxicity in Sprague-Dawley rat assessed as increase in heart weight at 60 mg/kg, po once daily for 14 days; type: organism-based; parameters: dose 60 mg/kg, route oral; conditions: in vivo, 336 h
Mus musculus [17] = assay: Antidiabetic activity in ob/ob mouse assessed as insulin correction at 10 mg/kg, po once daily for 5 days relative to control; type: functional
Mus musculus [18] = assay: Antidiabetic activity in C57BLKS/J-m+/+Leprdb db/db mouse assessed as reduction in plasma triglyceride levels at 1 mg/kg, po once daily for 11 days relative to control; type: functional; parameters: scale not given: the % may be the effect or the level left
[19] = molecular target: Thyroid hormone receptor beta (Homo sapiens) (UniProt P10828); assay: Activity at TRbeta receptor up to 10 uM by transactivation assay
[20] = molecular target: Thyroid hormone receptor alpha (Homo sapiens) (UniProt P10827); assay: Binding affinity to TRalpha up to 10 uM
[21] = Cmax in Beagle dog at 3 mg/kg, po once daily for 14 days; type: ADME, organism-based, Canis lupus familiaris; parameters: dose 3 mg/kg, route oral; conditions: in vivo
Mus musculus [22] = assay: Antidiabetic activity in ob/ob mouse assessed as reduction in plasma triglyceride levels at 3 mg/kg, po once daily for 5 days relative to control; type: functional; parameters: scale not given: the % may be the effect or the level left
[23] = Cmax in Beagle dog at 1 mg/kg, po once daily for 14 days; type: ADME, organism-based, Canis lupus familiaris; parameters: dose 1 mg/kg, route oral; conditions: in vivo
Mus musculus [24] = assay: Antidiabetic activity in ob/ob mouse assessed as insulin correction at 3 mg/kg, po once daily for 5 days relative to control; type: functional
[25] = molecular target: Thyroid hormone receptor beta (Homo sapiens) (UniProt P10828); assay: Binding affinity to TRbeta up to 10 uM
[26] = molecular target: T1, Peroxisome proliferator-activated receptor alpha (Mus musculus, UniProt P23204); assay: Agonist activity at mouse PPARalpha receptor expressed in african green monkey COS1 cells co-transfected with fused yeast Gal4-DBD by transactivation assay; type: functional, cell-based, COS-1
T1 sequence (P23204 whole entry): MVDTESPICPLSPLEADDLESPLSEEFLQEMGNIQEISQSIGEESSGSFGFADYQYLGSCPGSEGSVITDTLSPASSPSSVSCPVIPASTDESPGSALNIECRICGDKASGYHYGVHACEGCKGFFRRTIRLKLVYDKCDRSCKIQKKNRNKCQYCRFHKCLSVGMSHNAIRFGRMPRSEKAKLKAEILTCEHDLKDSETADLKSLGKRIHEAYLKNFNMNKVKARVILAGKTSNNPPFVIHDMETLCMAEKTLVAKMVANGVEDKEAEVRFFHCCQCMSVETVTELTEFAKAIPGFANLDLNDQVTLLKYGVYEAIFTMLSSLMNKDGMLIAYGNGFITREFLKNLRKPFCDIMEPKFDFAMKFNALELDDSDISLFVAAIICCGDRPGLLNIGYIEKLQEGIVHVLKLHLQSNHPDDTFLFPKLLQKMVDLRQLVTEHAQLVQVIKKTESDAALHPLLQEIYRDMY

[27] = molecular target: T2, Peroxisome proliferator-activated receptor alpha (Homo sapiens, UniProt Q07869); type: functional, cell-based, COS-1
T2 sequence (Q07869 whole entry): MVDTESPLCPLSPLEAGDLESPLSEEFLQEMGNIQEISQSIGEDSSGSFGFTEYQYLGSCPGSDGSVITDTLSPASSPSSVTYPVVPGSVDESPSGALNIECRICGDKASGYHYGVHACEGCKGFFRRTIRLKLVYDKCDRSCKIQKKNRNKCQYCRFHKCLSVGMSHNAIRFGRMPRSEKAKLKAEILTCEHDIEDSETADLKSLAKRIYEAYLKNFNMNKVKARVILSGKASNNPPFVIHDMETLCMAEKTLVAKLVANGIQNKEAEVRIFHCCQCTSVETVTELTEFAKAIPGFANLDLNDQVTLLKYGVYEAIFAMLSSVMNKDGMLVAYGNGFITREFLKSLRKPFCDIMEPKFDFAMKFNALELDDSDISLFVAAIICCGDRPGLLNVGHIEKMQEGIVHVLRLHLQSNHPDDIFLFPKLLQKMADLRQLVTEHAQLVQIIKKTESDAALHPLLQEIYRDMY
Description: Agonist activity at human PPARalpha receptor expressed in african green monkey COS1 cells co-transfected with fused yeast Gal4-DBD by transactivation assay

Mus musculus [28] = assay: Antidiabetic activity in ob/ob mouse assessed as reduction in plasma glucose levels at 3 mg/kg, po once daily for 5 days relative to control; type: functional; parameters: scale not given: the % may be the effect or the level left
[29] = molecular target: Thyroid hormone receptor alpha (Homo sapiens) (UniProt P10827); assay: Activity at TRalpha receptor up to 10 uM by transactivation assay
Mus musculus [30] = assay: Antidiabetic activity in high fat diet-fed streptozotocin-treated mouse assessed as reduction in plasma glucose levels at 5 mg/kg, po once daily for 12 days relative to control; type: functional; parameters: scale not given: the % may be the effect or the level left
Rattus norvegicus [31] = assay: Antidiabetic activity in po dosed Zucker fa/fa rat assessed as insulin lowering activity treated once daily for 7 days; type: functional
[32] = molecular target: Oxysterols receptor LXR-beta (Homo sapiens) (UniProt P55055); assay: Binding affinity to LXRbeta up to 10 uM
Rattus norvegicus [33] = assay: Antidiabetic activity in Zucker fa/fa rat assessed as decrease in triglyceride levels at 0.3 mg/kg, po once daily for 7 days; type: functional, organism-based; parameters: dose 0.3 mg/kg

Thyroid hormone receptor beta (Homo sapiens), sequence (P10828 whole entry, the tested form may be a part): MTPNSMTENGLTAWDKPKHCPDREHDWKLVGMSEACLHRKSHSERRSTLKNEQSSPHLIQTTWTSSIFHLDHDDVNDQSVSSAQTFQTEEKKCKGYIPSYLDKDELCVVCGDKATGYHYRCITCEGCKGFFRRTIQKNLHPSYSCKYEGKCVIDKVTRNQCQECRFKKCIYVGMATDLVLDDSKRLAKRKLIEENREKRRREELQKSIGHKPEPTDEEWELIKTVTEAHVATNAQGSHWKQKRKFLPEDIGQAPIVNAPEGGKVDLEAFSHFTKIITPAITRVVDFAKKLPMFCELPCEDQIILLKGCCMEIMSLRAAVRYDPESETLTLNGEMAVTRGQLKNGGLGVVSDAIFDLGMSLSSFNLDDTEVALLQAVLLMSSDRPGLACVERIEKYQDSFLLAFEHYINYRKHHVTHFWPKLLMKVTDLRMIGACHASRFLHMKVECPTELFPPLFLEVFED
Thyroid hormone receptor alpha (Homo sapiens), sequence (P10827 whole entry): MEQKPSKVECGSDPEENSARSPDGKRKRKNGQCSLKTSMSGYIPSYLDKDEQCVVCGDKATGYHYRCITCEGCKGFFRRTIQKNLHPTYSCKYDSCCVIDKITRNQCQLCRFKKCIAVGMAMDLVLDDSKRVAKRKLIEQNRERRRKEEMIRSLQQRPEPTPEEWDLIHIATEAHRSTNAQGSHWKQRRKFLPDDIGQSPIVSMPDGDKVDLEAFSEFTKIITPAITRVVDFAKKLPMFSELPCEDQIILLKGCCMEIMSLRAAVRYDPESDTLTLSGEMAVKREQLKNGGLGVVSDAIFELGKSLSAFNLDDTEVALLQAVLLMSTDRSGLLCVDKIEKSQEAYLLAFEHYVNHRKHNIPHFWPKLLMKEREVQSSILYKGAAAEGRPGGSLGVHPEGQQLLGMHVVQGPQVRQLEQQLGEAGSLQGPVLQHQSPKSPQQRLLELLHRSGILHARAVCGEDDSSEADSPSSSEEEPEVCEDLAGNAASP
Retinoic acid receptor RXR-alpha (Homo sapiens), sequence (P19793 whole entry): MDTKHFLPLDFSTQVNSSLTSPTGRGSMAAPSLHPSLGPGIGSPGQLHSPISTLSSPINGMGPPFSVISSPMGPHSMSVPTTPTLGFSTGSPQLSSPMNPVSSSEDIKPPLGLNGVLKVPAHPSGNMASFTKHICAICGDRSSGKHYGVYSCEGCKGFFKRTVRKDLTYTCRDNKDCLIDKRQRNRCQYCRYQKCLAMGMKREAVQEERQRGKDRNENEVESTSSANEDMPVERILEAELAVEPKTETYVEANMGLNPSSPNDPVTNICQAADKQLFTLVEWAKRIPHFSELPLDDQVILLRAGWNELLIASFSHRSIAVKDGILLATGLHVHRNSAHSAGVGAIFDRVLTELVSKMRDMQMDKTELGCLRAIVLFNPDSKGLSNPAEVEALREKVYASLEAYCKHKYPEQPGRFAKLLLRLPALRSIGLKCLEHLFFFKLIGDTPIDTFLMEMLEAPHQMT
Estrogen receptor (Homo sapiens), sequence (P03372 whole entry): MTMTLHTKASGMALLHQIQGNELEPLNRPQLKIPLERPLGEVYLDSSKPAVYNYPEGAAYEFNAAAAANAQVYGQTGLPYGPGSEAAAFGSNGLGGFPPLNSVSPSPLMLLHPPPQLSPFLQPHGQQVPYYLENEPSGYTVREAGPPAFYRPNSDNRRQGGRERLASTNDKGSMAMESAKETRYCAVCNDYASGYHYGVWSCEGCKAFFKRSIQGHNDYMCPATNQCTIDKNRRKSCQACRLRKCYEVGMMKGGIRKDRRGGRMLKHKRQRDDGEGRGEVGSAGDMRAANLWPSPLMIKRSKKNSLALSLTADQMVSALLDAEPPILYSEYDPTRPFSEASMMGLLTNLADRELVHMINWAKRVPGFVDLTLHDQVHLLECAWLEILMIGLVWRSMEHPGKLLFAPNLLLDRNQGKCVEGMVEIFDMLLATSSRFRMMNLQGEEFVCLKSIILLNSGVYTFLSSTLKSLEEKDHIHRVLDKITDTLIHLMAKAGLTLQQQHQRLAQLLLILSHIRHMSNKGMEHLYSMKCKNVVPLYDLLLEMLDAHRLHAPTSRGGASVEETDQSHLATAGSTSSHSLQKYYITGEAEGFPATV
Oxysterols receptor LXR-beta (Homo sapiens), sequence (P55055 whole entry): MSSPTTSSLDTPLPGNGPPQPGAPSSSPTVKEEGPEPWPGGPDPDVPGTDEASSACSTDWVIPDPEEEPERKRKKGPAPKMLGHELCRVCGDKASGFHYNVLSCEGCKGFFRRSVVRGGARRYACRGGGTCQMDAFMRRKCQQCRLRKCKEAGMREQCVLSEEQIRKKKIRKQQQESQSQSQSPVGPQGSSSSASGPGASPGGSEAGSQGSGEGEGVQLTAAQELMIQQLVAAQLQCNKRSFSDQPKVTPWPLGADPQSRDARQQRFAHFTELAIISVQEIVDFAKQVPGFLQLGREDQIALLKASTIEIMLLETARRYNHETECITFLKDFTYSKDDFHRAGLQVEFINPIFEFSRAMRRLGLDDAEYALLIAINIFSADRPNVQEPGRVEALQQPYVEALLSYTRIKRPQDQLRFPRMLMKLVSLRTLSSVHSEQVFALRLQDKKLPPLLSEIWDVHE

**Q.** Which AUC [1] does the source give for `CC[C@@H](Oc1cccc(Cn2c(C)c(C(=O)c3ccc(Cl)cc3)c3ccc(OC(F)(F)F)cc32)c1)C(=O)O` here?
**A.** Its AUC is 1.5 µM·h.

**Q.** And the AUC at 336 h [2]?
**A.** The AUC at 336 h was 40 µM·h.

**Q.** What about the Activity (Rattus norvegicus [3]) of the same compound?
**A.** The Activity was “Active”.

**Q.** What about the Cmax [4] of the same compound?
**A.** The Cmax was 70 nM.

**Q.** What about the AUC at 264 h [5] of the same compound?
**A.** The AUC at 264 h was 6.4 µM·h.

**Q.** And the Activity [6]?
**A.** Its Activity is “inactive”.

**Q.** What about the Activity (Rattus norvegicus [7]) of the same compound?
**A.** Its Activity is “Active”.

**Q.** And the Cmax [8]?
**A.** Its Cmax is 1500 nM.

**Q.** And the Activity (Rattus norvegicus [9])?
**A.** The Activity was -8%.

**Q.** What about the Activity [10] of the same compound?
**A.** The Activity was “inactive”.

**Q.** And the Cmax [11]?
**A.** Its Cmax is 600 nM.

**Q.** And the Activity (Rattus norvegicus [12])?
**A.** Its Activity is “Active”.

**Q.** And the Activity (Rattus norvegicus [13])?
**A.** Its Activity is “Active”.

**Q.** And the Activity (Mus musculus [14])?
**A.** The Activity was 84%.

**Q.** And the Activity (Mus musculus [15])?
**A.** Its Activity is 98%.

**Q.** And the Activity (Rattus norvegicus [16])?
**A.** The Activity was 1%.

**Q.** And the Activity (Mus musculus [17])?
**A.** The Activity was 89%.

**Q.** And the Activity (Mus musculus [18])?
**A.** The Activity was 75%.

**Q.** And the Activity [19]?
**A.** Its Activity is “inactive”.

**Q.** What about the Activity [20] of the same compound?
**A.** The Activity was “inactive”.

**Q.** And the Cmax [21]?
**A.** The Cmax was 18600 nM.

**Q.** What about the Activity (Mus musculus [22]) of the same compound?
**A.** The Activity was 27%.

**Q.** And the Cmax [23]?
**A.** Its Cmax is 1030 nM.

**Q.** What about the Activity (Mus musculus [24]) of the same compound?
**A.** The Activity was 67%.

**Q.** What about the Activity [25] of the same compound?
**A.** Its Activity is “inactive”.

**Q.** And the EC50 [26]?
**A.** Its EC50 is 0.12 µM.

**Q.** What about the EC50 [27] of the same compound?
**A.** Its EC50 is 0.23 µM.

**Q.** What about the Activity (Mus musculus [28]) of the same compound?
**A.** The Activity was 21%.

**Q.** And the Activity [29]?
**A.** Its Activity is “inactive”.

**Q.** What about the Activity (Mus musculus [30]) of the same compound?
**A.** Its Activity is 75%.

**Q.** And the ED50 (Rattus norvegicus [31])?
**A.** Its ED50 is 10 µM·h.

**Q.** What about the Activity [32] of the same compound?
**A.** Its Activity is “inactive”.

**Q.** And the Activity (Rattus norvegicus [33])?
**A.** The Activity was “Active”.
